Measured values taken from ChEMBL document CHEMBL4392886, “Antibacterial and Antibiofilm Activity of Flavonoid and Saponin Derivatives from Atriplex tatarica against Pseudomonas aeruginosa” (2019).
In brackets after ≈: the same amount, converted by molar mass. Activity calls are given as the source filed them. The rule behind the calls is not given here.

Tests used:
Format in all cases: functional
Micrococcus flavus [1] = assay: Antibacterial activity against Micrococcus flavus ATCC 10240 by microdilution method
Micrococcus flavus [2] = assay: Bactericidal activity against Micrococcus flavus ATCC 10240 by microdilution method
Listeria monocytogenes [3] = assay: Antibacterial activity against Listeria monocytogenes NCTC 7973 by microdilution method
Listeria monocytogenes [4] = assay: Bactericidal activity against Listeria monocytogenes NCTC 7973 by microdilution method
Pseudomonas aeruginosa [5] = assay: Antibacterial activity against Pseudomonas aeruginosa ATCC 27853 by microdilution method
Pseudomonas aeruginosa [6] = assay: Bactericidal activity against Pseudomonas aeruginosa ATCC 27853 by microdilution method
Escherichia coli [7] = assay: Antibacterial activity against Escherichia coli ATCC 35210 by microdilution method
Escherichia coli [8] = assay: Bactericidal activity against Escherichia coli ATCC 35210 by microdilution method
Pseudomonas aeruginosa [9] = assay: Antibiofilm activity against Pseudomonas aeruginosa PAO1 assessed as inhibition of biofilm formation at 0.5 times MIC incubated for 24 hrs by crystal violet staining based ELISA method
Pseudomonas aeruginosa [10] = assay: Antibiofilm activity against Pseudomonas aeruginosa PAO1 assessed as inhibition of biofilm formation at 0.25 times MIC incubated for 24 hrs by crystal violet staining based ELISA method
Pseudomonas aeruginosa [11] = assay: Antibiofilm activity against Pseudomonas aeruginosa PAO1 assessed as inhibition of biofilm formation at 0.125 times MIC incubated for 24 hrs by crystal violet staining based ELISA method

## CC1(C)S[C@@H]2[C@H](NC(=O)[C@H](N)c3ccccc3)C(=O)N2[C@H]1C(=O)O [AMPICILLIN]
Micrococcus flavus [1]
  MIC: 716 µM (≈ 250 µg/mL)
Micrococcus flavus [2]
  MBC: 1150 µM (≈ 400 µg/mL)
Listeria monocytogenes [3]
  MIC: 1150 µM (≈ 400 µg/mL)
Listeria monocytogenes [4]
  MBC: 1430 µM (≈ 501 µg/mL)
Pseudomonas aeruginosa [5]
  MIC: 2150 µM (≈ 751 µg/mL)
Pseudomonas aeruginosa [6]
  MBC: 3580 µM (≈ 1250 µg/mL)
Escherichia coli [7]
  MIC: 716 µM (≈ 250 µg/mL)
Escherichia coli [8]
  MBC: 1430 µM (≈ 501 µg/mL)
Pseudomonas aeruginosa [9]
  inhibition (INH): 65.3%
Pseudomonas aeruginosa [10]
  inhibition (INH): 58.9%
Pseudomonas aeruginosa [11]
  inhibition (INH): 85.2%

## CC1(C)[C@@H](O[C@H]2OC[C@H](O)[C@H](O)[C@H]2O[C@H]2O[C@H](CO)[C@@H](O)[C@H](O)[C@H]2OS(=O)(=O)O)CC[C@]2(C)[C@H]3CC=C4[C@@H]5C[C@@](C)(CO)CC[C@]5(C(=O)O[C@H]5O[C@H](CO)[C@@H](O)[C@H](O)[C@H]5O)CC[C@@]4(C)[C@]3(C)CC[C@@H]12
Pseudomonas aeruginosa [5]
  MIC: 496 µM (≈ 501 µg/mL)
Pseudomonas aeruginosa [6]
  MBC: 744 µM (≈ 751 µg/mL)
Pseudomonas aeruginosa [9]
  inhibition (INH): 26.5%
Pseudomonas aeruginosa [10]
  inhibition (INH): 21.9%
Pseudomonas aeruginosa [11]
  inhibition (INH): 12.5%

## COc1c(O)cc2oc(-c3ccc(O)c(O)c3)c(O[C@H]3O[C@H](CO)[C@@H](O)[C@H](O)[C@H]3O[C@@H]3OC[C@](O)(CO)[C@H]3O)c(=O)c2c1O
Micrococcus flavus [1]
  MIC: 399 µM (≈ 250 µg/mL)
Micrococcus flavus [2]
  MBC: 639 µM (≈ 400 µg/mL)
Listeria monocytogenes [3]
  MIC: 639 µM (≈ 400 µg/mL)
Listeria monocytogenes [4]
  MBC: 1200 µM (≈ 751 µg/mL)
Pseudomonas aeruginosa [5]
  MIC: 399 µM (≈ 250 µg/mL)
Pseudomonas aeruginosa [6]
  MBC: 639 µM (≈ 400 µg/mL)
Escherichia coli [7]
  MIC: 399 µM (≈ 250 µg/mL)
Escherichia coli [8]
  MBC: 639 µM (≈ 400 µg/mL)
Pseudomonas aeruginosa [9]
  inhibition (INH): 58.1%
Pseudomonas aeruginosa [10]
  inhibition (INH): 12.2%
Pseudomonas aeruginosa [11]
  inhibition: inactive

## COc1cc(/C=C/C(=O)OC[C@@]2(O)CO[C@@H](O[C@H]3[C@@H](Oc4c(-c5ccc(O)c(O)c5)oc5cc(O)c(OC)c(O)c5c4=O)O[C@H](CO)[C@@H](O)[C@@H]3O)[C@@H]2O)ccc1O
Micrococcus flavus [1]
  MIC: 312 µM (≈ 250 µg/mL)
Micrococcus flavus [2]
  MBC: 623 µM (≈ 500 µg/mL)
Listeria monocytogenes [3]
  MIC: 935 µM (≈ 751 µg/mL)
Listeria monocytogenes [4]
  MBC: 1250 µM (≈ 1000 µg/mL)
Pseudomonas aeruginosa [5]
  MIC: 312 µM (≈ 250 µg/mL)
Pseudomonas aeruginosa [6]
  MBC: 623 µM (≈ 500 µg/mL)
Escherichia coli [7]
  MIC: 499 µM (≈ 400 µg/mL)
Escherichia coli [8]
  MBC: 623 µM (≈ 500 µg/mL)
Pseudomonas aeruginosa [9]
  inhibition (INH): 20.1%
Pseudomonas aeruginosa [10]
  inhibition (INH): 4.3%
Pseudomonas aeruginosa [11]
  inhibition: inactive

## CC1(C)[C@@H](O[C@H]2OC[C@H](O)[C@H](O)[C@H]2O[C@H]2O[C@H](CO)[C@@H](O)[C@H](O)[C@H]2OS(=O)(=O)O)CC[C@]2(C)[C@H]3CC=C4[C@@H]5C[C@@](C)(C=O)CC[C@]5(C(=O)O[C@H]5O[C@H](CO)[C@@H](O)[C@H](O)[C@H]5O)CC[C@@]4(C)[C@]3(C)CC[C@@H]12
Micrococcus flavus [1]
  MIC: 596 µM (≈ 601 µg/mL)
Micrococcus flavus [2]
  MBC: 1190 µM (≈ 1200 µg/mL)
Listeria monocytogenes [3]
  MIC: 1990 µM (≈ 2000 µg/mL)
Listeria monocytogenes [4]
  MBC: 2490 µM (≈ 2500 µg/mL)
Pseudomonas aeruginosa [5]
  MIC: 994 µM (≈ 1000 µg/mL)
Pseudomonas aeruginosa [6]
  MBC: 1190 µM (≈ 1200 µg/mL)
Escherichia coli [7]
  MIC: 497 µM (≈ 501 µg/mL)
Escherichia coli [8]
  MBC: 596 µM (≈ 601 µg/mL)
Pseudomonas aeruginosa [9]
  inhibition (INH): 56.6%
Pseudomonas aeruginosa [10]
  inhibition (INH): 45.9%
Pseudomonas aeruginosa [11]
  inhibition (INH): 7.2%

## COc1cc(/C=C/C(=O)O[C@H]2[C@H](O[C@H]3[C@@H](Oc4c(-c5ccc(O)c(O)c5)oc5cc(O)c(OC)c(O)c5c4=O)O[C@H](CO)[C@@H](O)[C@@H]3O)O[C@@H](C(=O)O)[C@@H](O)[C@@H]2O)ccc1O
Micrococcus flavus [1]
  MIC: 296 µM (≈ 250 µg/mL)
Micrococcus flavus [2]
  MBC: 473 µM (≈ 400 µg/mL)
Listeria monocytogenes [3]
  MIC: 886 µM (≈ 751 µg/mL)
Listeria monocytogenes [4]
  MBC: 1180 µM (≈ 1000 µg/mL)
Pseudomonas aeruginosa [5]
  MIC: 296 µM (≈ 250 µg/mL)
Pseudomonas aeruginosa [6]
  MBC: 473 µM (≈ 400 µg/mL)
Escherichia coli [7]
  MIC: 591 µM (≈ 500 µg/mL)
Escherichia coli [8]
  MBC: 1180 µM (≈ 1000 µg/mL)
Pseudomonas aeruginosa [9]
  inhibition (INH): 43%
Pseudomonas aeruginosa [10]
  inhibition (INH): 26.2%
Pseudomonas aeruginosa [11]
  inhibition (INH): 1.8%

## CN[C@@H]1[C@H](O[C@H]2[C@H](O[C@H]3[C@H](O)[C@@H](O)[C@H](N=C(N)N)[C@@H](O)[C@@H]3N=C(N)N)O[C@@H](C)[C@]2(O)C=O)O[C@@H](CO)[C@H](O)[C@H]1O [STREPTOMYCIN]
Micrococcus flavus [1]
  MIC: 344 µM (≈ 200 µg/mL)
Micrococcus flavus [2]
  MBC: 516 µM (≈ 300 µg/mL)
Listeria monocytogenes [3]
  MIC: 344 µM (≈ 200 µg/mL)
Listeria monocytogenes [4]
  MBC: 516 µM (≈ 300 µg/mL)
Pseudomonas aeruginosa [5]
  MIC: 344 µM (≈ 200 µg/mL)
Pseudomonas aeruginosa [6]
  MBC: 516 µM (≈ 300 µg/mL)
Escherichia coli [7]
  MIC: 344 µM (≈ 200 µg/mL)
Escherichia coli [8]
  MBC: 516 µM (≈ 300 µg/mL)
Pseudomonas aeruginosa [9]
  inhibition (INH): 52.5%
Pseudomonas aeruginosa [10]
  inhibition (INH): 74.6%
Pseudomonas aeruginosa [11]
  inhibition (INH): 89.3%

## CC1(C)[C@@H](O[C@H]2OC[C@H](O)[C@H](O)[C@H]2O[C@H]2O[C@H](CO)[C@@H](O)[C@H](O)[C@H]2O[C@H]2O[C@H](CO)[C@@H](O)[C@H](O)[C@H]2O)CC[C@]2(C)[C@H]3CC=C4[C@@H]5C[C@@](C)(C=O)CC[C@]5(C(=O)O[C@H]5O[C@H](CO)[C@@H](O)[C@H](O)[C@H]5O)CC[C@@]4(C)[C@]3(C)CC[C@@H]12
Micrococcus flavus [1]
  MIC: 919 µM (≈ 1000 µg/mL)
Micrococcus flavus [2]
  MBC: 1380 µM (≈ 1500 µg/mL)
Listeria monocytogenes [3]
  MIC: 1150 µM (≈ 1250 µg/mL)
Listeria monocytogenes [4]
  MBC: 1840 µM (≈ 2000 µg/mL)
Pseudomonas aeruginosa [5]
  MIC: 689 µM (≈ 751 µg/mL)
Pseudomonas aeruginosa [6]
  MBC: 1380 µM (≈ 1500 µg/mL)
Escherichia coli [7]
  MIC: 919 µM (≈ 1000 µg/mL)
Escherichia coli [8]
  MBC: 1380 µM (≈ 1500 µg/mL)
Pseudomonas aeruginosa [9]
  inhibition (INH): 53.4%
Pseudomonas aeruginosa [10]
  inhibition (INH): 39.4%
Pseudomonas aeruginosa [11]
  inhibition: inactive
